According to the supplement of paper PMC11061612:

Experiments:
[1] = system: 8505C (Thyroid Gland Carcinoma); experiment: Bliss excess, mean over the matrix (fraction); higher = more synergy
Outline: (§1)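 Cell lines grown in DMEM/F12 or RPMI with 10% FBS were plated in 1536-well plates and held 24 hours at 37°C, 5% CO2 before 72 hours of exposure to two-drug dose matrices, with DMSO typically at 0.2%. CellTiter-Glo 2.0 luminescence gave viability, which was converted to inhibition. Vehicle wells were set to 0 and blank wells to 1. Combination Emax is the second-highest inhibition in the matrix, and Bliss excess is the observed combination effect minus the expected EA + EB − EA·EB, where EA and EB are the single-agent effects.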

[2] = system: CHSA8926 (Chondrosarcoma); experiment: as above
Outline: as §1

[3] = system: DAN-G (Pancreatic Carcinoma); experiment: as above
Outline: as §1

[4] = system: ESO51 (Esophageal Adenocarcinoma); experiment: as above
Outline: as §1

[5] = system: G-361 (Melanoma); experiment: as above
Outline: as §1

[6] = system: H9 (T-Cell Non-Hodgkin's Lymphoma); experiment: as above
Outline: as §1

[7] = system: HCC1187 (Breast Carcinoma); experiment: as above
Outline: as §1

[8] = system: IM-95 (Gastric Carcinoma); experiment: as above
Outline: as §1

[9] = system: JHH-4 (Hepatocellular Carcinoma); experiment: as above
Outline: as §1

[10] = system: KMS-12-BM (Plasma Cell Myeloma); experiment: as above
Outline: as §1

[11] = system: KY821 (Acute Myeloid Leukemia); experiment: as above
Outline: as §1

[12] = system: MOLM-13 (Acute Myeloid Leukemia); experiment: as above
Outline: as §1

[13] = system: NCI-H661 (Non-Small Cell Lung Carcinoma); experiment: as above
Outline: as §1

[14] = system: PC-3 (Prostate Carcinoma); experiment: as above
Outline: as §1

[15] = system: RD (Rhabdomyosarcoma); experiment: as above
Outline: as §1

[16] = system: RPMI-8226 (Plasma Cell Myeloma); experiment: as above
Outline: as §1

[17] = system: SK-GT-2 (Gastric Carcinoma); experiment: as above
Outline: as §1

[18] = system: SNU-398 (Hepatocellular Carcinoma); experiment: as above
Outline: as §1

[19] = system: SU-DHL-5 (B-Cell Non-Hodgkin's Lymphoma); experiment: as above
Outline: as §1

[20] = system: SUP-B15 (B-Lymphoblastic Leukemia); experiment: as above
Outline: as §1

[21] = system: 8505C (Thyroid Gland Carcinoma); experiment: combination Emax (second highest fraction inhibited in the dose matrix, 72 h); higher = more inhibition; extreme values may be limits of the assay
Outline: as §1

[22] = system: CHSA8926 (Chondrosarcoma); experiment: as above
Outline: as §1

[23] = system: DAN-G (Pancreatic Carcinoma); experiment: as above
Outline: as §1

[24] = system: ESO51 (Esophageal Adenocarcinoma); experiment: as above
Outline: as §1

[25] = system: G-361 (Melanoma); experiment: as above
Outline: as §1

[26] = system: H9 (T-Cell Non-Hodgkin's Lymphoma); experiment: as above
Outline: as §1

[27] = system: HCC1187 (Breast Carcinoma); experiment: as above
Outline: as §1

[28] = system: IM-95 (Gastric Carcinoma); experiment: as above
Outline: as §1

[29] = system: JHH-4 (Hepatocellular Carcinoma); experiment: as above
Outline: as §1

[30] = system: KMS-12-BM (Plasma Cell Myeloma); experiment: as above
Outline: as §1

[31] = system: KY821 (Acute Myeloid Leukemia); experiment: as above
Outline: as §1

[32] = system: MOLM-13 (Acute Myeloid Leukemia); experiment: as above
Outline: as §1

[33] = system: NCI-H661 (Non-Small Cell Lung Carcinoma); experiment: as above
Outline: as §1

[34] = system: PC-3 (Prostate Carcinoma); experiment: as above
Outline: as §1

[35] = system: RD (Rhabdomyosarcoma); experiment: as above
Outline: as §1

[36] = system: RPMI-8226 (Plasma Cell Myeloma); experiment: as above
Outline: as §1

[37] = system: SK-GT-2 (Gastric Carcinoma); experiment: as above
Outline: as §1

[38] = system: SNU-398 (Hepatocellular Carcinoma); experiment: as above
Outline: as §1

[39] = system: SU-DHL-5 (B-Cell Non-Hodgkin's Lymphoma); experiment: as above
Outline: as §1

[40] = system: SUP-B15 (B-Lymphoblastic Leukemia); experiment: as above
Outline: as §1

[41] = system: CW-2 (Colorectal Carcinoma); experiment: Bliss excess, mean over the matrix (fraction); higher = more synergy
Outline: as §1

[42] = system: DMS-114 (Small Cell Lung Carcinoma); experiment: as above
Outline: as §1

[43] = system: KU812 (Chronic Myelogenous Leukemia); experiment: as above
Outline: as §1

[44] = system: KYSE-270 (Esophageal Squamous Cell Carcinoma); experiment: as above
Outline: as §1

[45] = system: M059J (Glioblastoma); experiment: as above
Outline: as §1

[46] = system: MN-60 (B-Lymphoblastic Leukemia); experiment: as above
Outline: as §1

[47] = system: MOG-G-CCM (Low Grade Glioma); experiment: as above
Outline: as §1

[48] = system: NCCIT (Other Solid Carcinomas); experiment: as above
Outline: as §1

[49] = system: NCI-H2731 (Mesothelioma); experiment: as above
Outline: as §1

[50] = system: NCI-H3122 (Lung Adenocarcinoma); experiment: as above
Outline: as §1

[51] = system: NCI-H520 (Squamous Cell Lung Carcinoma); experiment: as above
Outline: as §1

[52] = system: NCI-H526 (Small Cell Lung Carcinoma); experiment: as above
Outline: as §1

[53] = system: NCI-H929 (Plasma Cell Myeloma); experiment: as above
Outline: as §1

[54] = system: OCI-AML3 (Acute Myeloid Leukemia); experiment: as above
Outline: as §1

[55] = system: SJSA-1 (Osteosarcoma); experiment: as above
Outline: as §1

[56] = system: SK-GT-4 (Esophageal Adenocarcinoma); experiment: as above
Outline: as §1

[57] = system: ST486 (Burkitt's Lymphoma); experiment: as above
Outline: as §1

[58] = system: T-T (Esophageal Squamous Cell Carcinoma); experiment: as above
Outline: as §1

[59] = system: VMRC-RCZ (Kidney Carcinoma); experiment: as above
Outline: as §1

[60] = system: COR-L279 (Small Cell Lung Carcinoma); experiment: combination Emax (second highest fraction inhibited in the dose matrix, 72 h); higher = more inhibition; extreme values may be limits of the assay
Outline: as §1

[61] = system: CW-2 (Colorectal Carcinoma); experiment: as above
Outline: as §1

[62] = system: DMS-114 (Small Cell Lung Carcinoma); experiment: as above
Outline: as §1

[63] = system: KU812 (Chronic Myelogenous Leukemia); experiment: as above
Outline: as §1

[64] = system: KYSE-270 (Esophageal Squamous Cell Carcinoma); experiment: as above
Outline: as §1

[65] = system: M059J (Glioblastoma); experiment: as above
Outline: as §1

[66] = system: MN-60 (B-Lymphoblastic Leukemia); experiment: as above
Outline: as §1

[67] = system: MOG-G-CCM (Low Grade Glioma); experiment: as above
Outline: as §1

[68] = system: NCCIT (Other Solid Carcinomas); experiment: as above
Outline: as §1

[69] = system: NCI-H2731 (Mesothelioma); experiment: as above
Outline: as §1

[70] = system: NCI-H3122 (Lung Adenocarcinoma); experiment: as above
Outline: as §1

[71] = system: NCI-H520 (Squamous Cell Lung Carcinoma); experiment: as above
Outline: as §1

[72] = system: NCI-H526 (Small Cell Lung Carcinoma); experiment: as above
Outline: as §1

[73] = system: NCI-H929 (Plasma Cell Myeloma); experiment: as above
Outline: as §1

[74] = system: OCI-AML3 (Acute Myeloid Leukemia); experiment: as above
Outline: as §1

[75] = system: SJSA-1 (Osteosarcoma); experiment: as above
Outline: as §1

[76] = system: SK-GT-4 (Esophageal Adenocarcinoma); experiment: as above
Outline: as §1

[77] = system: ST486 (Burkitt's Lymphoma); experiment: as above
Outline: as §1

[78] = system: T-T (Esophageal Squamous Cell Carcinoma); experiment: as above
Outline: as §1

[79] = system: VMRC-RCZ (Kidney Carcinoma); experiment: as above
Outline: as §1
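For Bliss excess, mean over the matrix in this document: after 72 h of two-drug dosing.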

CC(=O)c1c(C)c2cnc(Nc3ccc(N4CCNCC4)cn3)nc2n(C2CCCC2)c1=O [Palbociclib] + CN(CC[C@H](CSC1=CC=CC=C1)NC2=C(C=C(C=C2)S(=O)(=O)NC(=O)C3=CC=C(C=C3)N4CCC(CC4)[C@H](C5=CC=CC=C5C6=CC=C(C=C6)Cl)O)S(=O)(=O)C(F)(F)F)CCO [AZD4320] (first compound max 10 µM, 7x7, partner max 1 µM)
Bliss excess [1]: -0.0924
Bliss excess [2]: -0.0753
Bliss excess [3]: -0.0408
Bliss excess [4]: -0.0853
Bliss excess [5]: -0.0222
Bliss excess [6]: -0.0114
Bliss excess [7]: -0.0429
Bliss excess [8]: -0.133
Bliss excess [9]: -0.0051
Bliss excess [10]: 0.0159
Bliss excess [11]: -0.0069
Bliss excess [12]: -0.0259
Bliss excess [13]: -0.0643
Bliss excess [14]: -0.0472
Bliss excess [15]: 0.0323
Bliss excess [16]: -0.0531
Bliss excess [17]: -0.0151
Bliss excess [18]: -0.0484
Bliss excess [19]: -0.0381
Bliss excess [20]: -0.0515
combination Emax [21]: 0.0974
combination Emax [22]: 0.741
combination Emax [23]: 0.288
combination Emax [24]: 0.15
combination Emax [25]: 0.598
combination Emax [26]: 0.983
combination Emax [27]: 0.239
combination Emax [28]: 0.471
combination Emax [29]: 0.703
combination Emax [30]: 1
combination Emax [31]: 1
combination Emax [32]: 1
combination Emax [33]: 0.107
combination Emax [34]: 0.159
combination Emax [35]: 0.875
combination Emax [36]: 0.95
combination Emax [37]: 0.531
combination Emax [38]: 0.308
combination Emax [39]: 1
combination Emax [40]: 1

N#Cc1cnc(Nc2cc(NC[C@H]3CNCCO3)c(C(F)(F)F)cn2)cn1 [SRA737] + Nc1ccn([C@@H]2O[C@H](CO)[C@@H](O)C2(F)F)c(=O)n1 [Gemcitabine] (first compound max 10 µM, 7x7, partner max 0.3 µM)
Bliss excess [41]: 0.0386
Bliss excess [42]: 0.087
Bliss excess [43]: 0.0421
Bliss excess [44]: 0.0675
Bliss excess [45]: 0.0426
Bliss excess [46]: -0.0116
Bliss excess [47]: 0.0991
Bliss excess [48]: 0.0492
Bliss excess [49]: 0.0907
Bliss excess [50]: 0.0479
Bliss excess [51]: 0.0706
Bliss excess [52]: 0.0912
Bliss excess [53]: 0.0643
Bliss excess [54]: -0.0422
Bliss excess [55]: -0.0857
Bliss excess [56]: 0.0313
Bliss excess [57]: -0.006
Bliss excess [58]: 0.144
Bliss excess [59]: 0.0299
combination Emax [60]: 0.986
combination Emax [61]: 0.623
combination Emax [62]: 0.715
combination Emax [63]: 0.813
combination Emax [64]: 0.991
combination Emax [65]: 0.794
combination Emax [66]: 0.745
combination Emax [67]: 0.857
combination Emax [68]: 0.816
combination Emax [69]: 0.515
combination Emax [70]: 0.826
combination Emax [71]: 0.892
combination Emax [72]: 0.942
combination Emax [73]: 0.922
combination Emax [74]: 0.93
combination Emax [75]: 0.681
combination Emax [76]: 0.491
combination Emax [77]: 0.968
combination Emax [78]: 0.737
combination Emax [79]: 0.518
